From patent US20130131062A1, “PYRIDAZINONES AND FURAN-CONTAINING COMPOUNDS” (priority 2006, published 2013)
pIC50: −log10 of the molar value. Read-outs that look alike come from different tables or passages of the source.

Tests used:
Type in all cases: cell-based, human
[1] = tested on: 15 non small cell lung cancer lines representing various EGFR and KRAS mutations; experiment: Dose response studies against 15 NSCLC lines (alamar blue)
Procedure: Dose response studies against 34 compounds from the pyridazinone and phenylfuran-carboxamide class were conducted. […] In addition, Tarceva was included in these dose response studies.
The dose response studies were done with the following standard procedure. First, the cells were counted and dispensed at 250 cells/well into 384-well microplates with compound. The cells were incubated for 48 hours at 37 C to complete treatment, and then alamar blue was added for an additional 48 hours. Finally, alamar blue reduction was measured and the data was loaded into ORIS, our data screening acquisition platform.

[2] = tested on: H1650; experiment: Non Small Cell Lung Cancer Proliferation Assay (Alamar Blue); settings: for inhibition at 10 µM: Homo sapiens, NCI-H1650
Procedure: (§1) Non Small Cell Lung Cancer cell lines are grown and maintained in Corning 175 cm2 flasks in RPMI 1640 media supplemented with 10% FBS, 1% antibiotic solution, 1% additional glutamine and pyruvate. These cells have a doubling time of 1-2 days. All cell types are adherent and grow in colonies. The cells should be kept at a density between 50,000 cells/mL-500,000 cells/mL to provide for optimum growth and adequate nutrition. The cell line should be maintained at 37° C. in a humidified atmosphere with 5% CO2 in a sterile cell culture incubator.
(§2) To perform the assay, the Non Small Cell Lung Cancer lines are diluted in media and plated into 384 well microplates at a final density of 250 cells in 45 μL. To ensure consistency and minimal pipetting error, the cells are plated using the Multidrop 384 with the following settings: Rocker Switch set at 384, Volume 45 and Column 24.
(§3) Low Controls for this assay are made by treating Non Small Cell Lung Cancer cells with 5 ul of staurosporine at 250 uM in 10% DMSO and 1% SDS. [Final concentration in this assay is 25 uM staurosporine in 1% DMSO and 0.1% SDS.]
(§4) High Controls for this assay are made by treating Non Small Cell Lung Cancer cells with 5 ul of 10% DMSO. [Final concentration in this assay is 1% DMSO].
(§5) The remaining wells of the 384 microplate may be treated with different compounds depending on the study. Important Note: All compounds for testing in this assay should be done at the final concentration of 1% DMSO.
(§6) After addition, the cells are placed in cell culture incubator at 37° C. for 48 hours for complete treatment.
(§7) After drug treatment, cytotoxicity is measured by Alamar Blue reduction. 5 μL of Alamar Blue is added to the 384 microplates using the Flexdrop.
(§8) The cells are incubated for 48 hours at 37° C. to complete the Alamar Blue reduction.
(§9) The final step in the assay is to measure the amount of Alamar Blue reduction. […] The Alamar Blue fluorescence is measured at an excitation of 530 nm and emission of 590 nm.
(§10) For the NSCLC project, the cell based assay was screened against a small molecule library of approximately 200,000 compounds. The compound library is stored in our automated robotic freezer (Biophile) at −20° C. in 100% DMSO. Compound freeze and thaw cycles are kept to a minimum. Compounds for use are diluted into the appropriate concentration and plated into 384 well microplates using our custom built low volume 384-well head tool (TPS 384, Apricot Designs Inc., CA, USA). This assay was performed on a fully automated linear track robotic platform (CRS F3 Robot System, Thermo Electron Corp., Ontario, Canada) utilizing several integrated peripherals for plate handling, liquid dispensing, and readout detection. First, non-small cell lung cancer cell lines are dispensed into 384 well microplates (Corning #3712 Tissue Culture Treated Plate, Corning, N.Y., USA) with 5 μL of test compounds at 100 uM in 10% DMSO for screening studies or 1 mM in 10% DMSO to 50 nM in 10% DMSO for dose response studies. The microplates are then placed at 37° C. for 48 hours to complete treatment of cells with compounds. Next, 5 ul of alamar blue was added using a liquid dispenser (FlexDrop Precision Dispenser, Perkin Elmer, Mass., USA) and incubated for 48 hours at 37° C. The alamar blue prompt fluorescence was measured on Victor V (Victor^3 V, Perkin Elmer, Mass., USA) and output data files were loaded into ORIS (Oncology Research Informatics System, MSKCC, NY, USA), a screening data acquisition and analysis platform.

[3] = tested on: H1975; experiment: as above; settings: for inhibition at 10 µM: Homo sapiens, NCI-H1975
Procedure: as §1, §2, §3, §4, §5, §6, §7, §8, §9, §10

[4] = tested on: H2030; experiment: as above; settings: for inhibition at 10 µM: Homo sapiens, NCI-H2030
Procedure: (§11) These cells have a doubling time of 1-2 days. All cell types are adherent and grow in colonies. The cells should be kept at a density between 50,000 cells/mL-500,000 cells/mL to provide for optimum growth and adequate nutrition. The cell line should be maintained at 37° C. in a humidified atmosphere with 5% CO2 in a sterile cell culture incubator.
(§12) To perform the assay, the Non Small Cell Lung Cancer lines are diluted in media and plated into 384 well microplates at a final density of 250 cells in 45 μL.
as §4
(§13) Important Note: All compounds for testing in this assay should be done at the final concentration of 1% DMSO.
as §6
(§14) After drug treatment, cytotoxicity is measured by Alamar Blue reduction.
as §8, §9
as §10, with “Compounds for use are diluted into the appropriate concentration and plated into 384 well microplates using our custom built low volume 384-well head tool (TPS 384, Apricot Designs Inc., CA, USA).” left out, “First, non-small cell lung cancer cell lines are dispensed into 384 well microplates (Corning #3712 Tissue Culture Treated Plate, Corning, N.Y., USA) with 5 μL of test compounds at 100 uM in 10% DMSO for screening studies or 1 mM in 10% DMSO to 50 nM in 10% DMSO for dose response studies.” left out

[5] = tested on: H3255; experiment: as above; settings: for inhibition at 10 µM: Homo sapiens, NCI-H3255
Procedure: as §11, §12, §4, §13, §6, §14, §8, §9
as §10, with “Compounds for use are diluted into the appropriate concentration and plated into 384 well microplates using our custom built low volume 384-well head tool (TPS 384, Apricot Designs Inc., CA, USA).” left out, “First, non-small cell lung cancer cell lines are dispensed into 384 well microplates (Corning #3712 Tissue Culture Treated Plate, Corning, N.Y., USA) with 5 μL of test compounds at 100 uM in 10% DMSO for screening studies or 1 mM in 10% DMSO to 50 nM in 10% DMSO for dose response studies.” left out

[6] = HPL1D (SV40-immortalized human lung epithelian cells, EGFR WT, KRAS WT), 12 point doubling dilution 10 uM to 5 nM, alamar blue, read-out: IC50 HPL1D
[7] = percentage inhibition, H1650, screening concentration of 10 μM compound in 1% DMSO (v/v), read-out: R1650 PRIMARY HTS [%]
[8] = percentage inhibition, H1975, screening concentration of 10 μM compound in 1% DMSO (v/v), read-out: R1975 PRIMARY HTS [%]
[9] = percentage inhibition, H2030, screening concentration of 10 μM compound in 1% DMSO (v/v), read-out: H2030 PRIMARY HTS [%]
[10] = percentage inhibition, H3255, screening concentration of 10 μM compound in 1% DMSO (v/v), read-out: H3255 PRIMARY HTS [%]
[11] = confirmation, percentage inhibition, 10 μM compound in 1% DMSO (v/v)
[12] = Homo sapiens, read-out: IC50 H23
[13] = Homo sapiens, read-out: IC50 H1118
[14] = Homo sapiens, read-out: IC50 HPL1D
[15] = Homo sapiens, read-out: IC50 PC9
[16] = Homo sapiens, PC9 (EGFR DclE746-A750, KRAS WT), 12 point doubling dilution 10 uM to 5 nM, alamar blue, read-out: IC50 PC9
[17] = primary screening, 10 μM compound in 1% DMSO (v/v), read-out: percentage inhibition H1650
[18] = primary screening, 10 μM compound in 1% DMSO (v/v), read-out: percentage inhibition H1975
[19] = primary screening, 10 μM compound in 1% DMSO (v/v), read-out: percentage inhibition H2030
[20] = primary screening, 10 μM compound in 1% DMSO (v/v), read-out: percentage inhibition H3255
[21] = primary screening, 10 μM compound in 1% DMSO (v/v)
[22] = Homo sapiens, H23 (EGFR WT, KRAS G12C), 12 point doubling dilution 10 uM to 5 nM, alamar blue, read-out: IC50 H23

SMILES: Cc1cccc(NC(=O)c2ccc([N+](=O)[O-])o2)c1 [compound 71762]
- pIC50 [1, 6]: < 5.00

SMILES: O=C(Nc1ccc(NC(=O)c2ccco2)c(Cl)c1)c1ccccc1 [compound 76839]
- inhibition at 10 µM [2, 7]: 20%
- inhibition at 10 µM [3, 8]: 3%
- inhibition at 10 µM [4, 9]: -6%
- inhibition at 10 µM [5, 10]: 2%

SMILES: O=C(Nc1ccc(F)c(Cl)c1)c1ccc([N+](=O)[O-])o1 [compound 87200]
- pIC50 [1, 6]: < 5.00

SMILES: Cc1ccc(NC(=O)c2ccc([N+](=O)[O-])o2)cc1 [compound 98697]
- CONFIRMATION [%] 3255 [5, 11]: 130%
- pIC50 [1, 12]: 6.04
- pIC50 [1, 13]: 6.25
- pIC50 [1, 14]: < 5.00
- pIC50 [1, 15]: 5.66

SMILES: O=C(Nc1ccc(Cl)cc1)c1ccc([N+](=O)[O-])o1 [compound 98698, 5-nitro-furan-2-carboxylic acid (4-chloro-phenyl)-amide]
- CONFIRMATION [%] 1975 [3, 11]: 57%
- CONFIRMATION [%] 2030 [4, 11]: 98%
- pIC50 [1, 12]: 6.22
- pIC50 [1, 13]: 6.28
- pIC50 [1, 14]: < 5.00
- pIC50 [1, 15]: 5.80

SMILES: Cc1cccnc1NC(=O)c1ccc([N+](=O)[O-])o1 [compound 108321]
- inhibition at 10 µM [2, 7]: 38%
- inhibition at 10 µM [3, 8]: -7%
- inhibition at 10 µM [4, 9]: 6%
- inhibition at 10 µM [5, 10]: 2%

SMILES: O=c1c(Cl)c(Cl)cnn1-c1cccc(C(F)(F)F)c1 [compound 176729]
- pIC50 [1, 16]: 6.05

SMILES: O=c1c2c(cnn1-c1ccccc1)SC(c1ccccc1)S2 (stereo not shown) [compound 182826]
- inhibition at 10 µM [2, 17]: 13%
- inhibition at 10 µM [3, 18]: 12%
- inhibition at 10 µM [4, 19]: -11%
- inhibition at 10 µM [5, 20]: -13%

SMILES: N#Cc1ccccc1-n1nc(C(=O)c2cccs2)cc(-c2nc3ccccc3[nH]2)c1=N [compound 186926]
- inhibition at 10 µM [2, 17]: 27%
- inhibition at 10 µM [3, 18]: 81%
- inhibition at 10 µM [4, 19]: 2%
- inhibition at 10 µM [5, 20]: 52%

SMILES: Cc1c(Oc2ccccc2)nnn1-c1cnn(-c2ccccc2)c(=O)c1Br [compound 223337]
- percentage inhibition H1650 [2, 21]: 13%
- percentage inhibition H1975 [3, 21]: 5%
- percentage inhibition H2030 [4, 21]: −14%
- percentage inhibition H3255 [5, 21]: 61%

SMILES: O=c1c(Cl)c(Cl)cnn1-c1ccccc1 [compound 257014]
- pIC50 [1, 12]: 6.59
- pIC50 [1, 13]: 6.35
- pIC50 [1, 14]: 6.42
- pIC50 [1, 15]: 6.08

SMILES: O=c1c(Br)c(Br)cnn1-c1ccccc1 [compound 257015]
- pIC50 [1, 6]: 6.52

SMILES: Cc1ccc(-n2ncc(Cl)c(Cl)c2=O)cc1 [compound 257016]
- pIC50 [1, 22]: 6.49

SMILES: CCc1cccc(-n2ncc(Cl)c(Cl)c2=O)c1 [compound 267062]
- pIC50 [1, 16]: 5.82

SMILES: CCCCc1cccc(-n2ncc(Cl)c(Cl)c2=O)c1 [compound 267063]
- pIC50 ([1]; H2444 (EGFR WT, KRAS G12V), 12 point doubling dilution 10 uM to 5 nM, alamar blue, read-out: IC50 H2444): 5.28

SMILES: Cc1cc(-n2ncc(Cl)c(Cl)c2=O)ccc1Br [compound 267064]
- pIC50 [1, 16]: < 5.00

SMILES: Cc1cc(-n2ncc(Cl)c(Cl)c2=O)ccc1Cl [compound 267065]
- pIC50 [1, 16]: < 5.00

SMILES: Cc1nc2cc(-n3ncc(Cl)c(Cl)c3=O)ccc2s1 [compound 267067]
- pIC50 [1, 16]: < 5.00

SMILES: Cc1ccc(-n2ncc(Cl)c(Cl)c2=O)cc1Cl [compound 267070]
- pIC50 [1, 6]: < 5.00
- pIC50 [1, 22]: < 5.00
- pIC50 [1, 16]: < 5.00

SMILES: O=c1c(Br)c(Br)cnn1-c1cccc(C(F)(F)F)c1 [compound 267072]
- pIC50 ([4]; dose response 10 μM to 5 nM): 5.85

SMILES: O=c1c(Br)c(Br)cnn1-c1ccccn1 [compound 267073]
- pIC50 [1, 22]: 7.15
- pIC50 [1, 16]: 6.38

SMILES: O=c1c(Cl)c(Cl)cnn1-c1ccc(Cl)cc1Cl [compound 267077]
- pIC50 ([5]; dose response 10 μM to 5 nM): 5.95
- pIC50 [1, 16]: < 5.00

SMILES: O=c1c(Cl)c(Cl)cnn1-c1ccccn1 [compound 267090]
- pIC50 ([1]; Homo sapiens, NCI-H820, H820 (EGFR T790M/DelE746-A750, KRAS WT), 12 point doubling dilution 10 uM to 5 nM, alamar blue, read-out: IC50 H820): 6.39
- pIC50 [1, 22]: 7.10
